Data taken from ChEMBL document CHEMBL6087443, “3-Halo-3-nitro-aza/thioflavanones: DNMT inhibitors with a two-site binding mode in the hDNMT3A catalytic pocket” (Bioorg Med Chem, 2025).
Activity calls are given as the source filed them. No cut-off for these calls is given here.

Experiments:
[1] = target: DNA (cytosine-5)-methyltransferase 3A (Homo sapiens) (UniProt Q9Y6K1); test: Inhibition of hDNMT3A-c using SAM and oligonucleotide with CpG site at 32 uM incubated for 2 hrs by fluorescence-based assay relative to control
[2] = target: DNA (cytosine-5)-methyltransferase 3A (Homo sapiens) (UniProt Q9Y6K1); test: Inhibition of hDNMT3A-c using SAM and oligonucleotide with CpG site at 10 uM incubated for 2 hrs by fluorescence-based assay relative to control
[3] = Stability of compound in DNMT methylation buffer by HPLC analysis; type: physicochemical
[4] = Stability of the compound in HEPES buffer incubated for 2 hrs by measuring inhibition of DNMT (unknown origin) at 32 uM by HPLC analysis; type: physicochemical
[5] = Stability of the compound in HEPES buffer incubated for 2 hrs by measuring inhibition of DNMT (unknown origin) at 10 uM by HPLC analysis; type: physicochemical
[6] = Stability of the compound at pH 5.3; type: physicochemical; settings: buffer

Sequence of DNA (cytosine-5)-methyltransferase 3A (Homo sapiens) (Q9Y6K1 whole entry, looked up): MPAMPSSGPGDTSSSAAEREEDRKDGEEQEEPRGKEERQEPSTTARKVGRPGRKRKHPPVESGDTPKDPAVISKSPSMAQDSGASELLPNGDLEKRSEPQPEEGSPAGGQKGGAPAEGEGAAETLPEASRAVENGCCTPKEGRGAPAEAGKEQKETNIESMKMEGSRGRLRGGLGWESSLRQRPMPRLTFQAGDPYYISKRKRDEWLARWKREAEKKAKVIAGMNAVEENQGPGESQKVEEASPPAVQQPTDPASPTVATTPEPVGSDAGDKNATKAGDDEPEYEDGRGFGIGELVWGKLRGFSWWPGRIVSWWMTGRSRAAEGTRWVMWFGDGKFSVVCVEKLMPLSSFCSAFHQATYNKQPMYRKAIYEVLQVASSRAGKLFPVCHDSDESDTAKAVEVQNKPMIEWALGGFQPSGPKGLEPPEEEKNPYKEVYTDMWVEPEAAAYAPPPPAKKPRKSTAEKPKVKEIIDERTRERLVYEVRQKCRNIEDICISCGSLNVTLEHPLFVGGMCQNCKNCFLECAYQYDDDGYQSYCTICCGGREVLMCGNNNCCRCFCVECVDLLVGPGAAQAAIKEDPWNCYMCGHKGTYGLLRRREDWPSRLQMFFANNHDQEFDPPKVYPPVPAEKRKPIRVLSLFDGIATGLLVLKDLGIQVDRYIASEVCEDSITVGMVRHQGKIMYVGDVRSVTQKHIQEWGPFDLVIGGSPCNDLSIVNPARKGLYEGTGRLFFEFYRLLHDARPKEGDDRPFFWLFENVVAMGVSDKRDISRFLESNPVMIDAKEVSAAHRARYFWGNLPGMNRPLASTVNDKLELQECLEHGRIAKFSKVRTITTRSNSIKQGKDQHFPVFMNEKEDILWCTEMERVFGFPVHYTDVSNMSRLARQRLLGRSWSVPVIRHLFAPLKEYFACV

Row | Stability [4] | Stability [5] | Stability [6] | SMILES | inhibition [1] | inhibition [2] | half-life [3] [min]
1 |  |  |  | COc1cccc(C2Nc3ccccc3C(=O)C2[N+](=O)[O-])c1 (stereo unspecified) | inactive | inactive | 
2 |  |  |  | O=C1c2ccccc2NC(c2ccccc2)C1[N+](=O)[O-] (stereo unspecified) | inactive | inactive | 
3 |  |  |  | COc1cccc(C2Nc3ccccc3C(=O)C2(Cl)[N+](=O)[O-])c1 (racemic) | 56% | 42% | 138
4 |  |  |  | O=C1c2ccccc2NC(c2ccccc2)C1(Br)[N+](=O)[O-] (racemic) | 89% | 55% | 18
5 | Unstable | Unstable | Stable | COc1cccc(C2Nc3ccccc3C(=O)C2(Br)[N+](=O)[O-])c1 (racemic) | 100% | 59% | 42
6 |  |  |  | O=C1c2ccccc2S[C@@H](c2ccccc2)[C@@]1(Br)[N+](=O)[O-] (relative stereo) | 68% | 42% | 12
7 |  |  |  | O=C1c2ccccc2S[C@@H](c2ccccc2)[C@]1(Br)[N+](=O)[O-] (relative stereo) | 86% | 51% | 72
8 |  |  |  | O=C1c2ccccc2S[C@H](c2cccc([N+](=O)[O-])c2)[C@@]1(Br)[N+](=O)[O-] (relative stereo) | 59% | 27% | 54
9 |  |  |  | O=C1c2ccccc2S[C@@H](c2ccccc2F)[C@]1(Br)[N+](=O)[O-] (relative stereo) | 67% | 32% | 48
10 |  |  |  | O=C1c2ccccc2S[C@@H](c2cccc(C(F)(F)F)c2)[C@@]1(Br)[N+](=O)[O-] (relative stereo) | 63% | 35% | 12
11 |  |  |  | O=C1c2ccccc2S[C@@H](c2cccc(C(F)(F)F)c2)[C@]1(Br)[N+](=O)[O-] (relative stereo) | 78% | 34% | 192
12 |  |  |  | O=C1c2ccccc2S[C@@H](c2ccccc2F)[C@@]1(Br)[N+](=O)[O-] (relative stereo) | 67% | 42% | 66
13 |  |  |  | O=C1c2ccccc2O[C@@H](c2ccccc2)[C@]1(Br)[N+](=O)[O-] (relative stereo) | 92% | 69% | 
14 |  |  |  | O=C1c2ccccc2O[C@@H](c2ccccc2[N+](=O)[O-])[C@]1(Cl)[N+](=O)[O-] (relative stereo) | 84% | 69% | 
